2 compounds from paper PMC9120013, “Ribosome inhibition by C9ORF72-ALS/FTD-associated poly-PR and poly-GR proteins revealed by cryo-EM” (Nature Communications, 2022) can be followed below.

Ends that are not written are not given here.

In data set [1] the test system is rabbit 80S ribosomes. The data set is described as follows: Kinetic peptidyl transfer (puromycin) assay on rabbit 80S ribosomes. The data set is classed as biochemical. The text has this: To test the effects of PR20 on the mammalian peptidyl transferase, 80S ribosomes were purified from rabbit reticulocyte lysate (Green Hectares) and dissociated into 40S and 60S subunits as described in the section entitled “Cryo-EM complex of mammalian 80S ribosome with PR20”. A model leaderless mRNA fragment placing the AUG codon in the P-site and the UUC codon in the A site (CCAC AUG UUC CCCCCCCCCCCCCCCCCC), was synthesized by IDT. The 80S•mRNA•fMet-tRNA^fMet complex with PRn (where n = 10, 20, or 40) or GR20 was assembled as follows. one micrometer 60S subunit was mixed with the DPR (starting with the initial DPR concentration of 33x relative to its final concentration in the reaction) in Assembly Buffer containing 20 mM Tris-acetate (pH 7.0), 100 mM KOAc, 10 mM Mg(OAc)2, and the mixture was incubated for 5 min at 30 °C. […] 1095 nM [^35S]-fMet-tRNA^fMet and the 60S solution were added (0.5 volumes of the 40S solution), resulting in the following concentrations: 330 nM 60S, 400 nM 40S, 730 nM tRNA, 11 µM mRNA and 11x of final concentration of a DPR in the buffer (20 mM Tris-acetate (pH 7.0), 100 mM KOAc, 10 mM Mg(OAc)2). The solution was incubated for 5 min at 30 °C. The solution was diluted ten times with the same buffer, then puromycin (prepared in the same buffer) was added and time progress curves were recorded.
(§1) The kinetics of puromycin reaction on the 70S or 80S ribosomes were recorded and analyzed essentially as described. An aliquot (4.5 μl) of the complex prior to addition of puromycin was quenched in 30 μl of saturated MgSO4 in 0.1 M NaOAc to represent the zero-time point. Five microliters of 500 µM puromycin (in the same buffer as that used for the ribosomal complex) was added to 45 μl of the complex to initiate the reaction, yielding estimated final concentrations: 30 nM for the ribosome, 1 µM mRNA, 66 nM [^35S]-fMet-tRNA^fMet, 50 µM puromycin, and varying concentrations of PRn and GRn peptides, from 30 nM to 2 μM. After 6, 15, 30, 90 s, and 5, 15, 30, 60, and (for slower reactions) 180 min, 5-μl aliquots were quenched in 30 μl of saturated MgSO4 in 0.1 M NaOAc. All quenched samples were extracted with 700 μl ethyl-acetate. 600 μl of the extract were mixed with 3.5 ml of Econo-Safe scintillation cocktail (RPI), and the amount of released [^35S]-labeled dipeptide was measured for each time point using a scintillation counter (Beckman Coulter, Inc.).
(§2) All time progress curves were recorded in duplicates, using independently prepared 70S or 80S complexes. Reaction rates were calculated using single-exponential or double-exponential (80S complexes) regressions for different concentrations of PRn and GRn using GraphPad Prism 8. Hyperbola fitting in Gnuplot was used to derive apparent Ki-values.

Data set [2] has as its system firefly luciferase enzyme. The data set is described as follows: Control: firefly luciferase enzyme activity in RRL without mRNA. The format is biochemical. As to conditions: 1 µM added after 120 s to 40 nM enzyme in RRL; n=6. An excerpt: The following additional controls indicate that DPR-induced changes in fluorescence were caused by translation inhibition.
Supplementary Fig. 1. […]

The subject of data set [3] is E. coli 70S ribosomes. Kind of data set: Kinetic peptidyl transfer (puromycin) assay on E. coli 70S ribosomes. As to conditions: 30 nM 70S, 50 µM puromycin, 37 °C; n = 2; read-out: apparent inhibition constant (Ki) of peptidyl transfer. The data set is classed as biochemical. The procedure: The effects of GRn or PRn on peptide bond formation in E. coli ribosome were tested in an in vitro assay that reacts the 70S ribosome loaded with [^35S]-fMet-tRNA^fMet in the P-site with puromycin, an A-site tRNA mimic, and measures the release of the resulting dipeptide containing formyl-methionine covalently bonded to puromycin, as described. E. coli tRNA^fMet (Chemical Block) was aminoacylated with [^35S]-N-formyl-L-methionine (Perkin Elmer) as described. 70S ribosomes were prepared from E. coli (MRE600) as described. 70S ribosomes were stored in the ribosome-storage buffer (20 mM Tris-HCl, pH 7.0; 100 mM NH4Cl; 20 mM MgCl2) at –80 °C. A model mRNA fragment, containing the Shine-Dalgarno sequence and a spacer to position the AUG codon in the P-site and the UUC codon in the A site (GGCAAGGAGGUAAAAAUGUUC AAAAAA), was synthesized by IDT. 70S•mRNA•fMet-tRNA^fMet complexes with GRn (where n = 4, 10 or 20) or PRn (where n = 4, 10, 20 or 40) were formed as follows. 330 nM 70S ribosomes were incubated with 11 µM mRNA in buffer containing 20 mM Tris-acetate (pH 7.0), 100 mM NH4OAc, 12 mM Mg(OAc)2, for 2 min at 37 °C. 730 nM [^35S]-fMet-tRNA^fMet was added and incubated for 5 min at 37 °C. The solution was diluted 9.6-fold with the same buffer, followed by addition of a GRn or PRn repeat peptide (22x relative to its final concentration). The complex was incubated for 5 min at 37 °C prior to addition of puromycin dissolved in the same buffer (see below).
as §1, §2

The test system of data set [4] is total HEK293 RNA. Kind of data set: DPR-induced RNA aggregation, turbidity OD600. As to conditions: for visible opalescence / OD600 change: 10 µM; for OD600 change / optical density relative to RNA alone: 100 ng/μl HEK293 RNA; for optical density relative to RNA alone: 0.2 to 1 µM, 20 min, room temperature. The data set is classed as physicochemical. The procedure: To test whether arginine-containing DPR proteins cause mRNA aggregation at the DPR concentrations sufficient to inhibit protein synthesis (0.2 and 1 μM), we measured turbidity (optical density at 600 nm; OD600; similarly to[41]) of the solutions containing 100 ng/μl total HEK293 RNA. We incubated RNA with PR20, GR20, GP20 (control), or water for 20 min at room temperature. […] Optical density was measured using NanoDrop One (Thermo Scientific, Waltham, MA, USA).

In the case of `N=C(N)NCCC[C@H](NC(=O)CNC(=O)[C@H](CCCNC(=N)N)NC(=O)CNC(=O)[C@H](CCCNC(=N)N)NC(=O)CNC(=O)[C@H](CCCNC(=N)N)NC(=O)CNC(=O)[C@H](CCCNC(=N)N)NC(=O)CNC(=O)[C@H](CCCNC(=N)N)NC(=O)CNC(=O)[C@H](CCCNC(=N)N)NC(=O)CNC(=O)[C@H](CCCNC(=N)N)NC(=O)CNC(=O)[C@H](CCCNC(=N)N)NC(=O)CNC(=O)[C@H](CCCNC(=N)N)NC(=O)CNC(=O)[C@H](CCCNC(=N)N)NC(=O)CNC(=O)[C@H](CCCNC(=N)N)NC(=O)CNC(=O)[C@H](CCCNC(=N)N)NC(=O)CNC(=O)[C@H](CCCNC(=N)N)NC(=O)CNC(=O)[C@H](CCCNC(=N)N)NC(=O)CNC(=O)[C@H](CCCNC(=N)N)NC(=O)CNC(=O)[C@H](CCCNC(=N)N)NC(=O)CNC(=O)[C@H](CCCNC(=N)N)NC(=O)CNC(=O)[C@H](CCCNC(=N)N)NC(=O)CNC(=O)[C@H](CCCNC(=N)N)NC(=O)CN)C(=O)O` [GR20], the “effect on peptidyl transfer on rabbit 80S” value in data set [1] (2 µM, n=2) is listed as “inhibits peptidyl transfer”. In addition, in data set [2], the “effect on firefly luciferase enzyme activity” value is “do not affect enzyme activity”. In data set [3], the Ki was determined as 164 ± 31 nM. In data set [4], the visible opalescence entry is “did not induce visible opalescence”, the OD600 change entry was “increased OD600” and the “optical density relative to RNA alone” value is given as “did not increase optical density”.
“PRPRPRPRPRPRPRPRPRPRPRPRPRPRPRPRPRPRPRPR [PR20]”: the “concentration at which inhibition of peptidyl transfer starts” value in data set [1] (30 nM 80S) is recorded as ~ 100 nM. For the same compound, the “effect on firefly luciferase enzyme activity” value in data set [2] is recorded as “do not affect enzyme activity”. Moreover, in data set [3], the Ki was found to be 44 ± 9 nM. In data set [4], the visible opalescence result is “did not induce visible opalescence”, the OD600 change entry is given as “increased OD600” and the “optical density relative to RNA alone” value is reported as “did not increase optical density”.
